Tested on: cyclic GMP
Test: Secretagogue-stimulated cyclic GMP accumulation in colonic crypt cell suspensions
Assay type: cell-based

Structure (SMILES): [Ca+2] [Ca^2+]
- Effect on Guanylin or STa induced cyclic GMP production: attenuates

Reference: patent US8486381B2, “Methods of modulating intestinal fluid balance” (Amgen Inc., priority 2005, dated 2013)
